ChEMBL document CHEMBL5244255, “An insight on medicinal attributes of 1,2,4-triazoles” (Eur J Med Chem, 2020)
Values after ≈ are worked out from the molar mass of the structure shown.

Columns and labels:
LOX IMVI = assay: Anticancer activity against human LOX IMVI cells assessed as cell growth inhibition incubated for 48 hrs by SRB assay; format: functional
U-251 = assay: Anticancer activity against human U-251 cells assessed as cell growth inhibition incubated for 48 hrs by SRB assay; format: functional
HOP-92 = assay: Anticancer activity against human HOP-92 cells assessed as cell growth inhibition incubated for 48 hrs by SRB assay; format: functional
HCT-116 [1] = assay: Anticancer activity against human HCT-116 cells assessed as cell growth inhibition incubated for 48 hrs by SRB assay; format: functional
A498 = assay: Anticancer activity against human A498 cells assessed as cell growth inhibition incubated for 48 hrs by SRB assay; format: functional
NCI-H460 = assay: Anticancer activity against human NCI-H460 cells assessed as cell growth inhibition incubated for 48 hrs by SRB assay; format: functional
MCF7 [2] = assay: Antiproliferative activity against human MCF7 cells assessed as cell viability incubated for 48 hrs by MTT assay; format: functional, cell-based; details: MCF7, 48 h
Trypanosoma brucei = assay: […] activity against Trypanosoma brucei assessed as […] growth inhibition; format: functional, organism-based
[3] = Inhibition of Plasmodium falciparum dihydrofolate reductase
PC-3 [4] = assay: Anticancer activity against human PC-3 cells assessed as cell growth inhibition; format: functional, cell-based
Mus musculus [5] = assay: Anticonvulsant activity in ip dosed mouse assessed as neurotoxicity measured after 15 mins; format: functional; details: 0.25 h
[6] = Protection index, ratio of TD50 for neurotoxicity in ip dosed mouse to ED50 for anticonvulsant activity in ip dosed mouse; format: toxicity, organism-based; details: in vivo, read-out: Ratio TD50/ED50
Rattus norvegicus [7] = assay: Antiinflammatory activity in rat assessed as reduction in edema at 5 to 20 mg/kg, po measured after 5 hrs relative to control; format: functional; design: scale not given: the % may be the effect or the level left; details: dose 5-20 mg/kg
[8] = molecular target: Hepatocyte growth factor receptor (Homo sapiens, UniProt P08581); assay: Inhibition of c-Met (unknown origin) incubated for 1 hrs in presence of ATP by ELISA assay
Sequence of Hepatocyte growth factor receptor (P08581 whole entry): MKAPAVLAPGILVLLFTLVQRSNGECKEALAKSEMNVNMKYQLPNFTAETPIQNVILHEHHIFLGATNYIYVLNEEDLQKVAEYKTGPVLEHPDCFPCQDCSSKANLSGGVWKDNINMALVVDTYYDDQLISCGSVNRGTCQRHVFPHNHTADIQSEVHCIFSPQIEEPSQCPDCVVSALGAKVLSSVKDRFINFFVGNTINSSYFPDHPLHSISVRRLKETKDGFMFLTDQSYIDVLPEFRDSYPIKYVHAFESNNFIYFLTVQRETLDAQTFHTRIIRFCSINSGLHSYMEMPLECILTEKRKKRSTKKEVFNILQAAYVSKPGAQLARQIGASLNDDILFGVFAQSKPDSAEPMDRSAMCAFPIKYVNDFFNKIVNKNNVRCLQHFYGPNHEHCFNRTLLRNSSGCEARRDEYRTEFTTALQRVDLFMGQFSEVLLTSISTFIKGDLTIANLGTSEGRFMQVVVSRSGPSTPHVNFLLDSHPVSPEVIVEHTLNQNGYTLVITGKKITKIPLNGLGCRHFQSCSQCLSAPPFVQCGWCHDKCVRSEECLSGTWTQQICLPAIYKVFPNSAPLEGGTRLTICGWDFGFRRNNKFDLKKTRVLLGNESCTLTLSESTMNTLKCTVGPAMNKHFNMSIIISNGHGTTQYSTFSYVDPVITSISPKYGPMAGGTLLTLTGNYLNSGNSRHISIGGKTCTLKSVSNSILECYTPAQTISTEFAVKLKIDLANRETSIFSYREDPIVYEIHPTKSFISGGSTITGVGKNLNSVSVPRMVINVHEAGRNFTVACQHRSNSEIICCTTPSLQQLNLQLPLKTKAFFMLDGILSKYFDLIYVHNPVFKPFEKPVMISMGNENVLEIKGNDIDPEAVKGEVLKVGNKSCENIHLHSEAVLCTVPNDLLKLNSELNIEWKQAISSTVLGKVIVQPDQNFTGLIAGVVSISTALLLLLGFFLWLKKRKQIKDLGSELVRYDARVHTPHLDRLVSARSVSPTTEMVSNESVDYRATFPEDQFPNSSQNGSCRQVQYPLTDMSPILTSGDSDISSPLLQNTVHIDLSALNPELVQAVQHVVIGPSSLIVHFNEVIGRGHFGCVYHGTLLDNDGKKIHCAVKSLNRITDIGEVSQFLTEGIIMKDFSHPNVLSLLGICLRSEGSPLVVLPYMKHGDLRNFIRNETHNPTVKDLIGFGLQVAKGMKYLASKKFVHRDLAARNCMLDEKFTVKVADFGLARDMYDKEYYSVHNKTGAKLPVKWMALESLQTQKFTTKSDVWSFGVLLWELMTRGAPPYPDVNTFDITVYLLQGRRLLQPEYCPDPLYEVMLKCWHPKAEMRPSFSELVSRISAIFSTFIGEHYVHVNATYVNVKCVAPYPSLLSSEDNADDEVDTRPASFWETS

[9] = molecular target: Vascular endothelial growth factor receptor 2 (Homo sapiens, UniProt P35968); assay: Inhibition of human VEGFR2 (unknown origin) incubated for 1 hrs in presence of ATP by ELISA assay
Sequence of Vascular endothelial growth factor receptor 2 (P35968 whole entry): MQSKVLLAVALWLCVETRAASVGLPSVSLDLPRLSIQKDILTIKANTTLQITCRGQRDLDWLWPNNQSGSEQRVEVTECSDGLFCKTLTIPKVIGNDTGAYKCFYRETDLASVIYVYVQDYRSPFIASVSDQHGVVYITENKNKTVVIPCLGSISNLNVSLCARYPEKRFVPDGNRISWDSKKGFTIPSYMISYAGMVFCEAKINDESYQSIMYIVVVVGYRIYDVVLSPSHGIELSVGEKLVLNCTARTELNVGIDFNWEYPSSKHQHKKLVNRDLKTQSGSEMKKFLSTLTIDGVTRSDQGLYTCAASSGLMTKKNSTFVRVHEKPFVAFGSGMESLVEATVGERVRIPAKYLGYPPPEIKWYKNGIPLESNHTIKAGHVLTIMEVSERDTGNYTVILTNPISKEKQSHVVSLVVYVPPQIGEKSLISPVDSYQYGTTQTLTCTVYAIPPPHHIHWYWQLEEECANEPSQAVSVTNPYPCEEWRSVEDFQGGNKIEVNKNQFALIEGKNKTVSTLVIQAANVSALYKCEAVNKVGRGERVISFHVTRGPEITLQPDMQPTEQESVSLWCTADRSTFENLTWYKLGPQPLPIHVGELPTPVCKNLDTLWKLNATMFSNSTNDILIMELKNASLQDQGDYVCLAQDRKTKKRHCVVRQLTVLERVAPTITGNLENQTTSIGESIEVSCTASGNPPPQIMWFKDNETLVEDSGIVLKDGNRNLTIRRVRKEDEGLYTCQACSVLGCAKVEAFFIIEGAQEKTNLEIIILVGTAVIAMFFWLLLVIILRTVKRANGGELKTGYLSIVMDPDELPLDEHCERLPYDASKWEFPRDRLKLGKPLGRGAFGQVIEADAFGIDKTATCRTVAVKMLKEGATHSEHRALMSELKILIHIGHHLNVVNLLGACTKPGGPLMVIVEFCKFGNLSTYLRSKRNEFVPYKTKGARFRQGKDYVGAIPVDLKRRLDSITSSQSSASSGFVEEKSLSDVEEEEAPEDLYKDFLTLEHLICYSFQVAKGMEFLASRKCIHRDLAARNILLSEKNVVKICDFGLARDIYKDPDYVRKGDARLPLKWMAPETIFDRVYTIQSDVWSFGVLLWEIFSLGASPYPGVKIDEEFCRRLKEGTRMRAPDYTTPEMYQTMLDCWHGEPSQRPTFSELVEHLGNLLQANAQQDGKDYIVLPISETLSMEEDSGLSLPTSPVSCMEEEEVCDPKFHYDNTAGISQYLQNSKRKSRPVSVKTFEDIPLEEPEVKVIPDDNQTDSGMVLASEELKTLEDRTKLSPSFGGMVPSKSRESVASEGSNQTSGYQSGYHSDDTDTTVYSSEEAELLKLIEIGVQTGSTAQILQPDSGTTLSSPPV

[10] = test system: Japanese encephalitis virus; assay: Antiviral activity against Japanese encephalitis virus; format: functional; details: read-out: ED50 (the source's name)
HepG2 = assay: Antiproliferative activity against human HepG2 cells assessed as cell viability incubated for 72 hrs by MTT assay; format: functional, cell-based; details: HepG2, 72 h
A549 [11] = assay: Anticancer activity against human A549 cells assessed as cell growth inhibition incubated for 48 hrs by CCK8 assay; format: functional, cell-based; details: A549, 48 h
SMMC-7721 = assay: Anticancer activity against human SMMC-7721 cells assessed as cell growth inhibition incubated for 48 hrs by CCK8 assay; format: functional, cell-based; details: SMMC-7721, 48 h
[12] = molecular target: Bifunctional dihydrofolate reductase-thymidylate synthase (Plasmodium vivax, UniProt O02604); assay: Inhibition of Plasmodium vivax dihydrofolate reductase measured after 48 hrs
Sequence of Bifunctional dihydrofolate reductase-thymidylate synthase (O02604 whole entry): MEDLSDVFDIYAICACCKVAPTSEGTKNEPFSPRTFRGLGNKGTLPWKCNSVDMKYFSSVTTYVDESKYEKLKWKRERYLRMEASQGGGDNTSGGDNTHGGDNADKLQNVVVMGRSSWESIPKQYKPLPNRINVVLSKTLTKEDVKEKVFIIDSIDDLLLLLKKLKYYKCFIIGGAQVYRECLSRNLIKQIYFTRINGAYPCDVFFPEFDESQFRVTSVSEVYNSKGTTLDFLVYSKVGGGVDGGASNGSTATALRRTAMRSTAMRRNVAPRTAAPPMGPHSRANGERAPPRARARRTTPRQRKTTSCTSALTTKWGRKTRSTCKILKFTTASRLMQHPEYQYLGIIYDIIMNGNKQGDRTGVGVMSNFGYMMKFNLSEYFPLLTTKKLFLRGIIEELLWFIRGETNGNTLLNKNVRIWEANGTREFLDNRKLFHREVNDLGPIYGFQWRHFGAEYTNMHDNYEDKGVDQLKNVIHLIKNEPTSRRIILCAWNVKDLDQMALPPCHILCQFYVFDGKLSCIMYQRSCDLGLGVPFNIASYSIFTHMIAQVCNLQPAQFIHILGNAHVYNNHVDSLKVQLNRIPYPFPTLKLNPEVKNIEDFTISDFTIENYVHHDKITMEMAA

[13] = Inhibition of Plasmodium falciparum dihydrofolate reductase measured after 48 hrs
PC-3 [14] = assay: Anticancer activity against human PC-3 cells assessed as cell growth inhibition incubated for 24 hrs by MTT assay; format: functional, cell-based; details: PC-3, 24 h
MCF7 [15] = assay: Anticancer activity against human MCF7 cells assessed as cell growth inhibition incubated for 24 hrs by MTT assay; format: functional, cell-based; details: MCF7, 24 h
HCT-116 [16] = assay: Anticancer activity against human HCT-116 cells assessed as cell growth inhibition incubated for 24 hrs by MTT assay; format: functional, cell-based; details: HCT-116, 24 h
A549 [17] = assay: Anticancer activity against human A549 cells assessed as cell growth inhibition incubated for 24 hrs by MTT assay; format: functional, cell-based; details: A549, 24 h
HCT-116 [18] = assay: Antiproliferative activity against human HCT-116 cells assessed as cell viability incubated for 48 hrs by MTT assay; details: HCT-116, 48 h
K562 = assay: Antiproliferative activity against human K562 cells assessed as cell growth inhibition by MTT assay; format: functional, cell-based
A549 [19] = assay: Antiproliferative activity against human A549 cells assessed as cell growth inhibition by MTT assay; format: functional, cell-based
MDA-MB-231 = assay: Antiproliferative activity against human MDA-MB-231 cells assessed as cell growth inhibition by MTT assay; format: functional, cell-based
Leishmania infantum = assay: Antileishmanial activity against Leishmania infantum measured after 20 mins; format: functional
BT-20 [20] = assay: Potency index, ratio of test compound IC50 to cisplatin IC50 for antiproliferative against human BT-20 cells; format: functional
A549 [21] = assay: Anticancer activity against human A549 cells assessed as cell growth inhibition incubated for 48 hrs by MTT assay; format: functional, cell-based; details: A549, 48 h
BT-20 [22] = assay: Anticancer activity against human BT-20 cells assessed as cell growth inhibition incubated for 48 hrs by MTT assay; format: functional, cell-based; details: BT-20, 48 h
HeLa = assay: Antiproliferative activity against human HeLa cells assessed as cell growth inhibition by MTT assay; format: functional, cell-based
[23] = Anticancer activity against human SK-MEL-128 cells assessed as cell growth inhibition incubated for 48 hrs by MTT assay; format: functional, cell-based; details: SK-MEL-128, 48 h
DU-145 [24] = assay: Anticancer activity against human DU-145 cells assessed as cell growth inhibition incubated for 48 hrs by MTT assay; format: functional, cell-based; details: DU-145, 48 h
PC-3 [25] = assay: Anticancer activity against human PC-3 cells assessed as cell growth inhibition incubated for 24 hrs by MTS assay; format: functional, cell-based; details: PC-3, 24 h
DU-145 [26] = assay: Anticancer activity against human DU-145 cells assessed as cell growth inhibition incubated for 24 hrs by MTS assay; format: functional, cell-based; details: DU-145, 24 h
LNCaP = assay: Anticancer activity against human LNCaP cells assessed as cell growth inhibition incubated for 24 hrs by MTS assay; format: functional, cell-based
Cytomegalovirus [27] = assay: Antiviral activity against Cytomegalovirus infected in HFF cells […]; format: functional, organism-based; details: Human betaherpesvirus 5, HFF
Cytomegalovirus [28] = assay: Potency index, ratio of test compound IC50 to ganciclovir IC50 for antiviral activity against Cytomegalovirus; format: functional
Human alphaherpesvirus 1 [29] = assay: Antiviral activity against Human alphaherpesvirus 1 infected in African green monkey Vero kidney cells assessed as plaque reduction at 80 uM relative to control; format: functional; design: scale not given: the % may be the effect or the level left
Cytomegalovirus [30] = assay: Potency index, ratio of ganciclovir IC50 to test compound IC50 for antiviral activity against Cytomegalovirus; format: functional
Rattus norvegicus [31] = assay: Antiinflammatory activity in rat assessed as reduction in xylene induced edema relative to control; format: functional; design: scale not given: the % may be the effect or the level left
[32] = Oral bioavailability in mouse relative to control; format: ADME, organism-based; details: in vivo
[33] = Inhibition of Mycobacterium tuberculosis Shikimate dehydrogenase […]; format: functional
Human alphaherpesvirus 1 [34] = assay: Antiviral activity against Human alphaherpesvirus 1 assessed as plaque reduction at […] relative to control; format: functional; design: dose or concentration left out as unconfirmed
Mus musculus [35] = assay: Anticonvulsant activity in ip dosed mouse assessed as MES-induced seizures; format: functional
Mus musculus [36] = assay: Anticonvulsant activity in ip dosed mouse assessed as protection against PTZ-induced seizure; format: functional

SMILES: Clc1ccccc1-c1nnc2c(Cc3ccccc3)nc3ccccc3n12
- GI50 (LOX IMVI): 5.18 µM
- GI50 (U-251): 1.96 µM
- GI50 (HOP-92): 3.91 µM
- GI50 (HCT-116 [1]): 3.49 µM
- GI50 (A498): 1.8 µM
- GI50 (NCI-H460): 3.45 µM

SMILES: O=C(O)c1ccc(-n2nc(Oc3ccccc3)nc2NC(=S)NC(=O)c2ccccc2)cc1
- IC50 (MCF7 [2]): 23.9 µM

SMILES: Cc1nc(C)c(C(=O)Nc2ccc(F)c(-c3nc4ncc(C(C)(C)C)cn4n3)c2)o1
- EC50 (Trypanosoma brucei): 0.03 µM

SMILES: CC1=C(C(=O)Nc2ccc(Br)cn2)C(c2cn(-c3ccccc3)nc2-c2ccc(Cl)cc2)n2ncnc2N1 (stereo unspecified)
- IC50 [3]: 0.023 µg/mL (≈ 0.0391 µM)

SMILES: O=C(CSc1nnc2n(Cc3ccccc3)c(=O)c3c4c(sc3n12)CCCC4)N1CCN(c2ccccc2)CC1
- IC50 (PC-3 [4]): 5.48 µM

SMILES: Fc1ccc(-n2c(-c3cccc(Cl)c3)n[nH]c2=S)cc1
- TD50 (Mus musculus [5]): 137 mg/kg
- selectivity ratio [6]: 3.9

SMILES: O=C(CSc1nncn1CC(=O)N/N=C/c1ccc(O)cc1)N/N=C/c1ccc(O)cc1
- Activity (Rattus norvegicus [7]): 64.44%

SMILES: Cc1c(C(=O)Nc2ccc(Oc3ccnc(-c4nncn4CN4CCN(C)CC4)c3)c(F)c2)c(=O)n(-c2ccccc2)n1C
- IC50 [8]: 0.11 µM
- IC50 [9]: 0.19 µM

SMILES: CN1C(=O)c2ccccc2N(c2cccc(-c3nnc4n3NC(c3ccccc3)=C(c3ccccc3)S4)c2)C1c1ccccc1 (stereo unspecified)
- EC50 [10]: 7.8 µg/mL (≈ 12.9 µM)

SMILES: CCc1nnc2c(Nc3ccc(C(=O)/C=C/c4cc(OC)c(OC)c(OC)c4)cc3)nc3ccccc3n12
- IC50 (HepG2): 8.58 µM

SMILES: CCCCSSc1nnc(-c2ccccc2)n1N
- IC50 (A549 [11]): 2.79 µM

SMILES: CC(C)SSc1nnc(-c2ccccc2)n1N
- IC50 (SMMC-7721): 2.97 µM

SMILES: CC1=NC2NC(CC(F)(F)F)=NN2C(Nc2ccc(C(F)(F)F)nc2)=C1 (stereo unspecified)
- IC50 [12]: 0.094 µM
- IC50 [13]: 0.053 µM

SMILES: CC1CNCC(C)N1c1ccc(Nc2nccc(N3CCn4c(nnc4-c4ccc(F)c(Cl)c4)C3)n2)cc1 (stereo unspecified)
- IC50 (PC-3 [14]): 5.52 µM
- IC50 (MCF7 [15]): 3.69 µM
- IC50 (HCT-116 [16]): 3.59 µM
- IC50 (A549 [17]): 2.14 µM

SMILES: CSc1nc(NC(=S)NCc2ccccc2)n(-c2ccc(C(=O)O)cc2)n1
- IC50 (HCT-116 [18]): 15.6 µM

SMILES: Cc1nn(-c2ccc(Br)cc2)c(=O)n1-n1c(-c2cc3ccccc3oc2=O)cs/c1=N\c1ccc(Cl)cc1
- IC50 (K562): 0.16 µg/mL (≈ 0.264 µM)
- IC50 (A549 [19]): 0.16 µg/mL (≈ 0.264 µM)
- IC50 (MDA-MB-231): 0.16 µg/mL (≈ 0.264 µM)

SMILES: Nn1c(S)nnc1Cn1nc(Cc2cccs2)n(N)c1=O
- MIC (Leishmania infantum): 625 µg/mL (≈ 1930 µM)

SMILES: CCN(CC)c1ccc2cc(C(=O)NNC(=O)Cn3nc(Cc4cccc(Br)c4)n(N)c3=O)c(=O)oc2c1
- Ratio IC50 (BT-20 [20]): 2.7
- IC50 (A549 [21]): 3.1 µg/mL (≈ 5.3 µM)
- IC50 (BT-20 [22]): 3.1 µg/mL (≈ 5.3 µM)
- IC50 (HeLa): 0.16 µg/mL (≈ 0.274 µM)
- IC50 [23]: 3.1 µg/mL (≈ 5.3 µM)
- IC50 (DU-145 [24]): 3.1 µg/mL (≈ 5.3 µM)

SMILES: COc1ccc2cc(C(C)c3nnc(SCC(=O)N/N=C/c4cc([N+](=O)[O-])ccc4-c4ccco4)n3-c3ccc(F)cc3)ccc2c1 (stereo unspecified)
- IC50 (PC-3 [25]): 26 µM
- IC50 (DU-145 [26]): 34.5 µM
- IC50 (LNCaP): 48.8 µM

SMILES: Cc1cc2nc(Cc3nncn3-c3ccccn3)c(=O)[nH]c2cc1C
- IC50 (Cytomegalovirus [27]): < 0.05 µM
- Ratio IC50 (Cytomegalovirus [28]): >3000

SMILES: CCOC(=O)CSc1nc2n(n1)C(=O)C(CCCl)C(C)N2 (stereo unspecified)
- Activity (Human alphaherpesvirus 1 [29]): 50%

SMILES: Nc1nc2c(ncn2COC(CO)CO)c(=O)[nH]1 [GANCICLOVIR]
- IC50 (Cytomegalovirus [27]): 0.59 µM
- Ratio IC50 (Cytomegalovirus [30]): >256

SMILES: O=c1c2sccc2n2cnnc2n1-c1ccc(Cl)cc1
- Activity (Rattus norvegicus [31]): 50.48%

SMILES: COc1ccc(OCc2nn3c(-c4ccc(Br)cc4)nnc3s2)cc1
- bioavailability [32]: 14%
- log(activity) [33]: 1.7

SMILES: Cc1ccc2nc(Cl)c3nnc(NC(=S)Nc4ccccc4)n3c2c1
- Activity (Human alphaherpesvirus 1 [34]): 25%

SMILES: Fc1ccc(-c2csc3nncn23)cc1
- ED50 (Mus musculus [35]): 49.1 mg/kg
- ED50 (Mus musculus [36]): 49.1 mg/kg
- selectivity ratio [6]: 1.7
